Data from patent US10183947B2, “Pyrazole derivatives useful as 5-lipoxygenase activating protein (FLAP) inhibitors” (ASTRAZENECA AB, priority 2015, dated 2019).
Read-outs that look alike come from different tables or passages of the source.

Tests used:
[1] = target: FLAP (human ALOX5AP expressed in COS-7 cell membranes) (Homo sapiens (Human), UniProt P20292); experiment: FLAP Binding Assay (Test A), competition binding with 3H-MK591 as tracer; settings: competition with 3H-MK591 (2 nM), membranes from COS-7 cells expressing human ALOX5AP, 60 min at rt
Chain of FLAP (human ALOX5AP expressed in COS-7 cell membranes) (P20292 whole entry): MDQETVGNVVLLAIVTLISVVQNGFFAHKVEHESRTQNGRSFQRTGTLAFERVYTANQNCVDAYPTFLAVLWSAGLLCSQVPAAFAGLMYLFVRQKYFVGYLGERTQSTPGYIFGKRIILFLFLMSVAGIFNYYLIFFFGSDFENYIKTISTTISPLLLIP
Procedure: FLAP Binding Assay (Test A) Compounds were tested in a competition binding assay using ^3H-MK591 as tracer. […] Med. Chem. […] A 100,000×g pellet from COS-7 cells stably transfected with a plasmid expressing human ALOX5AP was the source of FLAP. […] Following filtration, filter plates were dried 12 h at RT (or 50° C. for 1 hour). 50 μL scintillant was then added, the filterplates were sealed and radioactivity was measured in a microbeta counter. Specific binding was defined as total binding minus non-specific binding. Total binding was defined as ^3H-MK591 bound to membranes in the absence of competitor, non-specific binding was defined as ^3H-MK591 in the presence of 0.1 mM MK-591. IC50 values were determined by plotting % inhibition versus log compound concentration and using a one site dose response model.

[2] = system: LTB4 production in fresh human whole blood; experiment: FLAP Whole Blood Assay (Test B), inhibition of LTB4 production; assay type: cell-based; settings: then calcium ionophore A23187, LTB4 by EIA
Procedure: FLAP Whole Blood Assay (Test B)
Compounds were tested for the inhibition of LTB4 production in fresh human whole blood obtained by venapuncture using heparin to prevent clotting. 1.5 μL compounds or DMSO carrier were dispensed into the wells of a 96-well deep-well plate in 3-fold dilution series. 500 μL hepamised whole blood was then added followed by incubation at 37° C. for 30 min (method A) or 4 h (method B). 100 μL blood was subsequently transferred in triplicate to pre-dispensed 0.5 μL 2 mM calcium ionophore (calcimycin; A23187) in a second 96-well plate. Following incubation at 37° C. for 20 min, the assays were stopped by adding 10 μL of stop solution (100 mM EGTA, pH 7.4) and the plate was transferred to ice. The plate was centrifuged at 3000 rpm at 4° C. for 10 min and […] was transferred to a fresh 96 well plate containing 90 μL pre-dispensed EIA assay buffer (0.1 M phosphate buffer+0.1% BSA). LTB4 was then measured using reagents from a commercial EIA (Cayman Chemicals). LTB4 production was defined as the LTB4 level in the presence of a given concentration of test compound minus the LTB4 level in the presence of 50 nM 5-[[4-[(2S,4R)-4-hydroxy-2-methyl-tetrahydropyran-4-yl]-2-thienyl]sulfanyl]-1-methyl-indolin-2-one. (Preparation of 5-[[4-[(2S,4R)-4-hydroxy-2-methyl-tetrahydropyran-4-yl]-2-thienyl]sulfanyl]-1-methyl-indolin-2-one was described in Org. Process Res. Dev., 2005, 9, 555-569 or EP623614 B1). Inhibition of LTB4 production was defined as the LTB4 level in the presence of a given concentration of test compound expressed as a % of the LTB4 level in the presence of DMSO. IC50 values were determined by plotting % inhibition versus log compound concentration and using a one site dose response model.

[3] = method B: compound incubated with human whole blood at 37° C. for 4 h, read-out: IC50 nM (method B)

| IC50 [1] | IC50 ([2]; 0.5 h, method A: compound incubated with human whole blood at 37° C. for 30 min, read-out: IC50 nM (method A)) | IC50 [2, 3] | SMILES |
| --- | --- | --- | --- |
| 230 nM | 360 nM |  | CNC(=O)c1c(NC(=O)[C@@H]2CCCC[C@H]2C(=O)c2ccc(-c3cc(C)[nH]n3)cc2)cnn1C [Example 21, N,1-Dimethyl-4-[({(1R,2R)-2-[4-(5-methyl-1H-pyrazol-3-yl)benzoyl]-cyclohexyl}carbonyl)amino]-1H-pyrazole-5-carboxamide] |
| 65 nM |  | 55 nM | CN(C)S(=O)(=O)c1c(NC(=O)[C@@H]2CCCC[C@H]2C(=O)c2ccc(-c3ccn[nH]3)cc2)cnn1C [Example 27, (1R,2R)—N-[5-(Dimethylsulfamoyl)-1-methyl-1H-pyrazol-4-yl]-2-[4-(1H-pyrazol-5-yl)benzoyl]cyclohexanecarboxamide] |
| 34 nM |  | 60 nM | Cn1ncc(NC(=O)[C@@H]2CCCC[C@H]2C(=O)c2ccc(-c3cc[nH]n3)cc2)c1C(N)=O [Example 2, 1-Methyl-4-[({(1R,2R)-2-[4-(1H-pyrazol-3-yl)benzoyl]cyclohexyl}-carbonyl)amino]-1H-pyrazole-5-carboxamide] |
| 83 nM |  | 79 nM | Cn1cc(NC(=O)C2CCCCC2C(=O)c2ccc(-c3ccn[nH]3)cc2F)c(C(N)=O)n1 (single isomer, unassigned) [Example 35, 4-[({(1R,2R or 1S,2S)-2-[2-Fluoro-4-(1H-pyrazol-5-yl)benzoyl]-cyclohexyl}carbonyl)amino]-1-methyl-1H-pyrazole-3-carboxamide] |
| 41 nM |  | 41 nM | Cn1ncc(NC(=O)C2CCCCC2C(=O)c2ccc(-c3ccn[nH]3)cc2F)c1C(N)=O (single isomer, unassigned) [Example 34, 4-[({(1R,2R or 1S,2S)-2-[2-Fluoro-4-(1H-pyrazol-5-yl)benzoyl]-cyclohexyl}carbonyl)amino]-1-methyl-1H-pyrazole-5-carboxamide] |
| 270 nM |  | 340 nM | Cc1cc(-c2ccc(C(=O)[C@@H]3CCCC[C@H]3C(=O)Nc3cn(C)nc3S(N)(=O)=O)cc2)[nH]n1 [Example 10, (1R,2R)-2-[4-(3-Methyl-1H-pyrazol-5-yl)benzoyl]-N-(1-methyl-3-sulfamoyl-1H-pyrazol-4-yl)cyclohexanecarboxamide] |
